From a melting point compilation (Tetko et al.; mined from patent text by program, amines drawn as free bases though some values may be those of a salt)

Row | Structure (SMILES) | melting point
1 | N#Cc1cc(NCc2cc3c(cc2O)CCO3)cs1 | 138 to 139 °C
2 | COc1cc2ncc(C#N)c(Nc3cccc(Br)c3)c2cc1OC | 224 to 228 °C
3 | CN(C)C1CCN(c2nc(N3CCOCC3)c3ncnc(N(CCC#N)Cc4ccccc4)c3n2)CC1 | 45 to 47 °C
4 | O=C(CCCCCBr)c1cc2c3c(c1)CCN3C(=O)CC2 | 97 to 98 °C
5 | CC(=O)c1ccc(C2=CCCCC2)cc1 | 76 to 77 °C
6 | Clc1cccc(CSc2ccncc2)c1 | 222 to 224 °C
7 | Nc1cc(Br)nc(Br)c1 | 184 to 186 °C
8 | CC(C)(C)C(NC(=O)c1cc(Cl)cc(Cl)c1)Nc1c(Nc2cncc(C(F)(F)F)c2)c(=O)c1=O (stereo unspecified) | 233 to 234 °C
9 | O=C(OCc1ccccc1)N1CCN(c2ccccc2)CC1 | 49 to 51 °C
10 | N#Cc1ccnc(Cl)c1Cl | 65 to 69 °C
11 | N#CCCn1cc(C#N)c([N+](=O)[O-])n1 | 137 to 139 °C
12 | CCC(O)c1cc2c(cc1C)OCO2 (stereo unspecified) | 71 to 72 °C
13 | Oc1nsc(SCc2ccc(Cl)cc2)n1 | 138 °C
14 | OC(c1ccc2c(c1)CCN2)(C(F)(F)F)C(F)(F)F | 161 to 162 °C
15 | Cc1nn(CCO)c(-c2ccc(F)cc2)c1-c1ccc2c(c1)NC(=O)CO2 | 178 to 179 °C
16 | Cc1c(-c2ccncc2)oc2c1C(=O)CCC2 | 136 to 138 °C
17 | NS(=O)(=O)c1ccc(NC(=O)NCCCCCCNC(=O)n2cc(F)c(=O)[nH]c2=O)cc1 | 181 to 184 °C
18 | CC(C)(C)[C@@H](CO)NC(=O)[C@@H](CC(=O)O)n1ccc(-c2ccc(-c3ccncc3)cc2)c1 | 192 to 194 °C
19 | CCN1C(=O)C(C)(C)C(=O)N(C)c2cc(CN(CCn3ccc4oc(C)cc4c3=O)Cc3nc(C)n4ccccc34)ccc21 | 104 to 109 °C
20 | CC1=C(CCO)c2cc(F)ccc2C1 | 65 to 66.5 °C
21 | C=CCc1c(C)cc(C)c(C(C)O)c1-c1ccc(F)cc1 (stereo unspecified) | 92 °C

Row | Structure (SMILES) | melting point
22 | COc1ccc(C=O)c(OC)c1Br | 80 °C
23 | O=C(c1cc2c3ccccc3n(Cc3ccccc3)c2s1)N1CCOCC1 | 199 to 201 °C
24 | CCOC(=O)c1c(NC(=O)NC(C)C)sc(C)c1C | 135 °C
25 | CN1CCN(c2c(F)c(F)c([N+](=O)[O-])c(F)c2F)CC1 | 77 to 78 °C
26 | CC(C)C1c2ccc(F)cc2CCC1(O)CC(=O)O (stereo unspecified) | 102 to 104 °C
27 | CCC(C)P(=S)(NP(=S)(C(C)CC)C(C)CC)C(C)CC (stereo unspecified) | 110 to 114 °C
28 | CCCCCCCCCCCCCCCCSCC(CNS(=O)(=O)CCCCl)NC(=O)OC (stereo unspecified) | 67 to 69 °C
29 | CCC(CC)COc1ccc(-n2cc(C(=O)O)cn2)cc1C#N | 180 to 182 °C
30 | NCC(O)COc1cc([N+](=O)[O-])ccc1N (stereo unspecified) | 141 °C
31 | COc1ccc(N2CCN(C=C3C(=O)Nc4cc(OC)c(OC)cc43)CC2)cc1OC | 193 to 195 °C
32 | O=C(O)c1ccn2c1C(C(=O)O)CCC2 (stereo unspecified) | 236 to 237 °C
33 | O=C(O)C1=Cc2cc(Cl)ccc2NC1C(F)(F)F (stereo unspecified) | 133 to 134 °C
34 | Cc1ccnn1-c1ccc(Cl)c(Cl)c1 | 46 to 47 °C
35 | CC(=O)Nc1nc(C)c(S(=O)(=O)N2CCC(O)C2)s1 (racemic) | 241 °C
36 | Cc1cccc(-n2c(CF)nc3ccc(N)cc3c2=O)c1C | 189 to 192 °C
37 | Cc1csc(-c2ccc3c(c2)C=C(C(=O)Nc2ccc(CN(C)C4CCOCC4)cc2)CCS3(=O)=O)c1 | 232 to 234 °C
38 | CC(Cl)CCC(=O)c1ccccc1 (stereo unspecified) | 28 to 30 °C
39 | CCCCN(CC)c1nc(C)nc2c1C(C)(C)C(O)N2c1c(C)cc(C)cc1C (stereo unspecified) | 142 to 145 °C
40 | COc1cc2cc(-c3ccc4c(c3)OCO4)nc(C)c2cc1OC | 174 °C
41 | CC1(c2ccc(F)cc2)OC(C=Cc2ccc(C#N)cc2)=CC1=O (stereo unspecified) | 140 to 142 °C
42 | Oc1cccc(C2CNC3(CCCCC3)O2)c1 (stereo unspecified) | 138 to 139 °C

Row | Structure (SMILES) | melting point
43 | CN1C(C)(C)CC(OC(=O)NNC(=O)C(=O)NC2CC(C)(C)NC(C)(C)C2)CC1(C)C | 165 to 170 °C
44 | CCCCCCCCCCCCCCCCCCNC(=O)OCC(CNS(=O)(=O)CCCCl)NC(=O)OC (stereo unspecified) | 99 to 101 °C
45 | COc1cc(C)c2c(c1O)CC(C)(c1ccccc1)C2=O (stereo unspecified) | 136 to 139 °C
46 | Cc1ccc2sc3cc(C(=O)O)ccc3c2c1 | 290 to 291 °C
47 | CON=C(C#N)C(N)=O | 170 to 172 °C
48 | O=C(O)[C@H](Cc1c[nH]c2ccccc12)NC(=O)C1(NC(=O)[C@@H](S)C2CCOCC2)CCCC1 | 212 to 215 °C
49 | CN(C)N=Nc1c(Br)csc1C(N)=O | 194 to 196 °C
50 | CS(=O)(=O)c1ccc(-c2ccc(Br)n2-c2ccc(F)cc2)cc1 | 174 to 176 °C
51 | Clc1ccc(C2(Cl)c3ccc(Cl)cc3-c3ncncc32)cc1 (stereo unspecified) | 152 to 153 °C
52 | O=C(O)C1CCCN(C(=O)COC2CCN(C(=O)OCc3ccccc3)CC2)C1 (stereo unspecified) | 102 to 104 °C
53 | O=C(CCCCN1CCCCC1)c1ccc2c(c1)Cc1cc(C(=O)CCCCN3CCCCC3)ccc1S2 | 98.5 to 99.5 °C
54 | CC(c1ccc(OCCO)cc1)(c1ccc(OCCO)cc1)c1ccc(OCCO)cc1 | 78 to 81 °C
55 | COCCCCCC=C(NC(=O)C1CC1(C)C)C(=O)O (stereo unspecified) | 71 to 72 °C
56 | CCOC(=O)c1cnc2c3cc(OC)c(OC)cc3ccn2c1=O | 264 to 265 °C
57 | CC(C)(C(N)=O)c1ccc2nc(-c3ccncc3)[nH]c2c1 | 274 to 276 °C
58 | O=c1ccc(-c2ccc(Cl)c(C(F)(F)F)c2)n[nH]1 | 249 to 251 °C
59 | CN(c1cccc2cc(C3=NCC(C)(CN)S3)[nH]c12)S(=O)(=O)c1cccs1 (stereo unspecified) | 164 to 165 °C
60 | Clc1cc(CBr)c(CBr)cc1Cl | 55 to 56 °C
61 | Cc1cc2c(cc1C1=NNC(=O)CC1C)NC(=O)C(C)O2 (stereo unspecified) | 190 to 191 °C

Now from value to compound:

Row | melting point | Structure (SMILES)
62 | 161 to 163 °C | C[C@H](N)C(=O)N(C(=O)OCc1ccccc1)c1ccccc1
63 | > 300 °C | CC(C)(C)c1cnc(C(=O)Nc2cc(-c3cc(Nc4ccc(-c5ccncc5)nn4)c(=O)[nH]n3)ccc2F)cn1
64 | 191 to 193 °C | C#CCCN1C(=O)c2cccc3cccc(c23)C1=O
65 | 125 to 126 °C | OC1CCn2c(CCc3ccccc3)nc3cccc1c32 (stereo unspecified)
66 | 139 to 142 °C | CN(C)C1CCCN(C(=O)c2ccc([N+](=O)[O-])cc2)c2ccccc21 (stereo unspecified)
67 | 138 to 140 °C | CCCNC(=O)c1cnc2c(C)cccn2c1=O
68 | 106 to 108 °C | c1ccc(C2=Nc3cccnc3Nc3ccccc32)cc1
69 | > 250 °C | O=C(Nc1cccc2c1ncc1c(=O)n3ccnc3sc12)c1c(Cl)cccc1Cl
70 | 135 °C | CCCCNC(=O)COC1C(O)C(CO)OC(Oc2ccc(N)cc2)C1O (stereo unspecified)
71 | 107 °C | Cn1c(CCCO)nc2ccccc21
72 | 198 °C | CC(C)CC1(Cn2cnc3ccccc32)Sc2[nH]c(=O)n(C)c(=O)c2C1Sc1cccs1 (stereo unspecified)
73 | 172 to 174 °C | CCOC(=O)CCC1=C(C#N)C(c2ccccc2Cl)c2c[nH]nc2N1 (stereo unspecified)
74 | 144 °C | CC1(c2ccccc2)OC(C(=O)O)Oc2ccc(Cl)cc21 (stereo unspecified)
75 | 105 to 106 °C | CCOC(=O)C(C)(C)c1cn2nc(CCCCN3CCN(C(c4ccccc4)c4ccccc4)CC3)ccc2n1
76 | 118 to 119 °C | CCOC(=O)c1cnn(-c2ccccc2Oc2ccc(C)cc2O)c1
77 | 172 to 174 °C | CC(=O)OCC(=O)c1cc2c(s1)SCCc1cc(=O)n(-c3ccc(Cl)cc3)nc1-2
78 | 280 °C | NS(=O)(=O)c1ccc(-c2cn(-c3nc(-c4cccc(Cl)c4)cc(C(F)(F)F)n3)cn2)s1
79 | 146 to 147 °C | COc1cc(F)ccc1Oc1c(Cl)ncnc1NS(=O)(=O)c1ccc(C(C)(C)C)cc1
80 | 151 to 153 °C | CC1(O)CC(=O)OC(c2ccc(-c3ccccc3)cc2)C1 (stereo unspecified)
81 | 125 to 130 °C | O=C(O)c1cccc(CC(Cn2ccnc2)c2ccc(F)cc2)c1 (stereo unspecified)

Row | melting point | Structure (SMILES)
82 | 166 to 188 °C | O=C(NCCO)C(O)C(Oc1ccccc1[N+](=O)[O-])c1ccccc1 (stereo unspecified)
83 | 178 to 182 °C | O=C(CN1CCOCC1)Nc1nc2c(Oc3cc(-c4ccc(C(F)(F)F)cc4)ncn3)cccc2s1
84 | 89 to 95 °C | Cc1ccc(S(=O)(=O)NC(=O)OCCc2ccc(-n3c(CCC(=O)c4cccnc4)nc4cc(C(F)(F)F)c(Cl)cc43)cc2)cc1
85 | 114 °C | N=C(Cc1nc2cnc3ccc(Cl)cc3c2n1-c1ccccc1Cl)NO
86 | 260 °C | CC(=O)Nc1nc2c(Oc3cc(-c4ccc(C(F)(F)F)cc4NC(=O)C4CCCCN4C(C)C)ncn3)cccc2s1 (stereo unspecified)
87 | 175 to 178 °C | CCOC(=O)C1=C(C)NC(c2csc(C)n2)=NC1c1cccc(O)c1 (stereo unspecified)
88 | 167 °C | CCCNC(=O)COC1c2ccccc2C(=O)N1c1ccc2ccc(Cl)nc2n1 (stereo unspecified)
89 | 155 to 156 °C | CC(=O)OCc1cccc(C(C)C)c1NC(=O)CC1c2ccccc2Oc2ccccc21
90 | 205 to 207 °C | CC(C)(C)C(=O)c1c[nH]c2ncc(-n3ccc4ccccc43)nc12
91 | 204 to 205 °C | Cc1oc(-c2ccccc2)nc1CCOc1ccc(C=CC=C2OC(=O)NC2=O)cn1
92 | 178 to 181 °C | CN1CCC(=C2c3ccccc3CCc3ccc(CO)cc32)CC1
93 | 187 to 190 °C | O=C(O)C1=Cc2cc(S(=O)(=O)NCCc3ccccc3)ccc2OC1C(F)(F)F (stereo unspecified)
94 | 78 °C | COC(=O)c1c(F)cc(OCCNC(=O)C2Cc3ccccc3N2S(=O)(=O)c2ccc(-c3cc(C(F)(F)F)ccc3Cl)cc2)cc1F (stereo unspecified)
95 | 122 °C | CC(C)(C)c1ccc(S(=O)(=O)N2c3ccccc3C[C@H]2C(=O)NCc2cccc(OCCC(=O)O)c2)cc1
96 | 161 to 162 °C | COc1ccc(CNC(=O)C2=C(C(=O)Nc3cc(OC4CCCC4)c(Cl)cc3F)CCCC2)cc1
97 | 290 to 292 °C | O=c1cc(-c2ccc3ccccc3c2)[nH]c2ccccc12
98 | 97 to 99 °C | COc1ccc(N)c(-c2cc3ccccc3[nH]2)c1
99 | 123 to 125 °C | CCC(=O)Oc1cc(C(C)C)ccc1C1(OC(=O)CC)C(=O)c2ccccc2C1=O
100 | 139 to 145 °C | CCS(=O)(=O)CCC(=O)NNC(=O)N1Cc2ccccc2Oc2ccc(C(F)(F)F)cc21
101 | 170 to 172 °C | Cc1ccc(C(=O)NCc2cccnc2)c(Nc2ccc3cn[nH]c3c2)n1
